Source: patent US5336768A, “Antibacterial cephalosporin compounds” (Hoffmann-La Roche Inc., priority 1988, dated 1994)
Structures can show the parent of a compound that is named as a salt. Where two headings read alike, the source gives them in different places.

What was measured:
Test in all cases: In vitro MIC, Agar Dilution Method
Format in all cases: cell-based
[1] = test system: Ps. aeruginosa 18SH; settings: Pseudomonas aeruginosa, read-out: In Vitro MIC
From the text: (§1) The in vitro activity of the compounds of the present invention as measured by the Minimum Inhibitory Concentration (MIC) in micrograms/ml utilizing the Agar Dilution Method against a variety of Gram-positive and Gram-negative organisms, is as follows: […]

[2] = test system: E. coli ATCC 25922; settings: Escherichia coli, ATCC25922
From the text: as §1

[3] = test system: Staph. aureus ATCC 29213; settings: Staphylococcus aureus
From the text: as §1

[4] = test system: E. coli TEM-1; settings: Escherichia coli, TEM1, read-out: In Vitro MIC
From the text: as §1

[5] = test system: Str. faecalis ATCC 29212; settings: Enterococcus faecalis, ATCC29212
From the text: as §1

[6] = test system: Ser. marcescens SM; settings: Serratia marcescens, read-out: In Vitro MIC
From the text: as §1

[7] = test system: Enter. cloacae 5699; settings: Enterobacter cloacae
From the text: as §1

[8] = test system: Ser. marcescens 1071; settings: Serratia marcescens
From the text: as §1

[9] = test system: E. coli 257; settings: Escherichia coli
From the text: as §1

[10] = test system: Enter. cloacae P99; settings: Enterobacter cloacae
From the text: as §1

[11] = test system: Cit. freundii BS-16; settings: Citrobacter freundii, BS16
From the text: as §1

[12] = test system: Ps. aeruginosa 765
From the text: as §1

[13] = test system: Prot. mirabilis 90
From the text: as §1

[14] = test system: Str. pneumoniae 6301; settings: Streptococcus pneumoniae
From the text: as §1

[15] = test system: K. pneumoniae A; settings: Klebsiella pneumoniae, read-out: In Vitro MIC
From the text: as §1

[16] = test system: Prot. Vulqaris 1028 BC; settings: read-out: In Vitro MIC
From the text: as §1

[17] = test system: Ps. aeruginosa 8780; settings: Pseudomonas aeruginosa
From the text: as §1

[18] = test system: Staph. aureus 10598
From the text: as §1

[19] = test system: Ps. aeruginosa ATCC 27853; settings: Pseudomonas aeruginosa
From the text: as §1

[20] = test system: Staph. aureus 67; settings: Staphylococcus aureus
From the text: as §1

[21] = test system: Prot. vulgaris ATCC 6380; settings: Proteus vulgaris
From the text: as §1

[22] = test system: Staph. aureus Smith; settings: Staphylococcus aureus, read-out: In Vitro MIC
From the text: as §1

[23] = test system: Staph. aureus 753
From the text: as §1

[24] = test system: Ps. aeruginosa 5712; settings: Pseudomonas aeruginosa
From the text: as §1

[25] = test system: Str. pyogenes 4; settings: Streptococcus pyogenes
From the text: as §1

Structure (SMILES)	MIC [2]	MIC [4]	MIC [5]	MIC [7]	MIC [8]	MIC [9]	MIC [10]	MIC [11]	MIC [14]	MIC [17]	MIC [20]	MIC [24]	MIC [25]	also measured
CCn1cc(C(=O)O)c(=O)c2cc(F)c(N3CCN(C(=O)OCC4=C(C(=O)O)N5C(=O)[C@@H](NC(=O)/C(=N\OC)c6csc(N)n6)[C@H]5SC4)CC3)cc21 [Compound A, [6R-[6α,7β(Z)]]-7-[[(2-amino-4-thiazolyl) (methoxyimino)acetyl]amino]-3-[[[[4-(3-carboxy-1-ethyl-6-fluoro-1,4-dihydro-4-oxo-7-quinolinyl) -1-piperazinyl]carbonyl]oxy]methyl]-8-oxo-5-thia-1-azabicyclo[4.2.0]oct-2-ene-2-carboxylic acid sodium salt]	0.25 µg/mL	0.25 µg/mL	0.5 µg/mL	0.5 µg/mL	0.5 µg/mL	0.25 µg/mL	0.5 µg/mL	0.5 µg/mL	0.0157 µg/mL	4 µg/mL	4 µg/mL	16 µg/mL	0.0157 µg/mL	MIC ([1]; Ps. aeruginosa 18SH, Agar Dilution Method): 4 µg/mL; MIC ([3]; ATCC29213, Staph. aureus ATCC 29213, Agar Dilution Method, read-out: In Vitro MIC): 2 µg/mL; MIC [6]: 0.25 µg/mL; MIC ([12]; Pseudomonas aeruginosa, Ps. aeruginosa 765, Agar Dilution Method, read-out: In Vitro MIC): 8 µg/mL; MIC ([13]; Proteus mirabilis, 90, read-out: In Vitro MIC): 0.25 µg/mL; MIC ([15]; K. pneumoniae A, Agar Dilution Method): 0.5 µg/mL; MIC ([16]; Prot. Vulqaris 1028 BC, Agar Dilution Method): 0.125 µg/mL; MIC ([18]; Staphylococcus aureus, Staph. aureus 10598, Agar Dilution Method, read-out: In Vitro MIC): 2 µg/mL; MIC ([19]; ATCC27853, Ps. aeruginosa ATCC 27853, Agar Dilution Method, read-out: In Vitro MIC): 8 µg/mL; MIC ([21]; ATCC6380, Prot. vulgaris ATCC 6380, Agar Dilution Method, read-out: In Vitro MIC): 0.0625 µg/mL; MIC ([22]; Staph. aureus Smith, Agar Dilution Method): 1 µg/mL; MIC ([23]; Staphylococcus aureus, Staph. aureus 753, Agar Dilution Method, read-out: In Vitro MIC): 4 µg/mL
CO/N=C(\C(=O)N[C@@H]1C(=O)N2C(C(=O)O)=C(COC(=O)N3CCN(c4cc5c(cc4F)c(=O)c(C(=O)O)cn5C4CC4)CC3)CS[C@H]12)c1csc(N)n1 [Compound B, [6R-[6α,7β(Z)]]-7-[[(2-amino-4-thiazolyl) (methoxyimino)acetyl]amino]-3-[[[[4-(3-carboxy-1-cyclopropyl-6-fluoro-1,4-dihydro-4-oxo-7-quinolinyl)-1-piperazinyl]carbonyl]oxy]methyl]-8-oxo-5-thia-1-azabicyclo[4.2.0]oct-2-ene-2-carboxylic acid sodium salt]	0.0625 µg/mL	0.0625 µg/mL	0.25 µg/mL	0.125 µg/mL	0.25 µg/mL	0.0625 µg/mL	0.0313 µg/mL	0.125 µg/mL	0.0157 µg/mL	2 µg/mL	2 µg/mL	4 µg/mL	0.0157 µg/mL	MIC ([1]; 18SH): 1 µg/mL; MIC ([3]; ATCC29213, read-out: In Vitro MIC): 1 µg/mL; MIC ([6]; Ser. marcescens SM, Agar Dilution Method): 0.125 µg/mL; MIC ([12]; Pseudomonas aeruginosa, 765, read-out: In Vitro MIC): 1 µg/mL; MIC ([13]; Proteus mirabilis, Prot. mirabilis 90, Agar Dilution Method, read-out: In Vitro MIC): 0.25 µg/mL; MIC [15]: 0.0625 µg/mL; MIC [16]: 0.0625 µg/mL; MIC ([18]; Staphylococcus aureus, 10598, read-out: In Vitro MIC): 1 µg/mL; MIC ([19]; ATCC27853, read-out: In Vitro MIC): 1 µg/mL; MIC ([21]; ATCC6380, read-out: In Vitro MIC): 0.0625 µg/mL; MIC [22]: 0.5 µg/mL; MIC ([23]; Staphylococcus aureus, 753, read-out: In Vitro MIC): 1 µg/mL
